Tests used:
[1] = Water solubility, coulometric Karl Fischer titration ASTM-D6304; assay type: physicochemical
Method: According to some preferred embodiments, the organic solvent is not soluble (or essentially not soluble) in water, and preferably has a water solubility equal to or lower than 200 mg/kg, preferably equal to or lower than 190 mg/kg, and more preferably equal to or lower than […]. Water solubility can be determined by coulometric Karl Fischer titration according to ASTM-D6304.
Water solubility can be determined by coulometric Karl Fischer titration according to ASTM-D6304.

[2] = Flash point, closed-cup apparatus ASTM-D3278; assay type: physicochemical
Method: According to preferred embodiments, the organic solvent according to the present invention may have a flash point higher than 60° C., preferably higher than 62.5° C. and more preferably higher than 65° C. Flash point can be determined by closed-cup apparatus according to ASTM-D3278.
Flash point can be determined by closed-cup apparatus according to ASTM-D3278.

[3] = assay type: physicochemical
Method: The solubility of 2-ethylanthraquinone (2-EAQ) was measured in four different solvents. Solvents A to C are according to the invention, while solvent D is a comparative solvent: • Solvent A: 1-ethyl-4-methoxybenzene • Solvent B: 2,6-dimethylanisole • Solvent C: phenylpropylether • Solvent D: 1,3,5-trimethylbenzene
Solubilities were determined by equilibrating the 2-ethylanthraquinone with the solvent in a glass flask shaken in a carefully temperature controlled atmosphere. Analysis of the samples was done by liquid chromatography. Reference mixtures were prepared for calibration.
The solubility is measured at a temperature of 20° C.

[4] = Specific gravity, hydrometer ASTM-D891; assay type: physicochemical
Excerpt: The organic solvent according to the present invention may have a specific gravity equal to or lower than 0.95, and preferably equal to or lower than 0.94. According to preferred embodiments, the organic solvent according to the present invention may have a specific gravity from 0.89 to 0.95, and preferably from 0.90 to 0.94. Specific gravity can be determined by means of a hydrometer according to ASTM-D891.
Specific gravity can be determined by means of a hydrometer according to ASTMD891.

[5] = Vapor pressure, ebulliometry ASTM-E1719; assay type: physicochemical
Method: Furthermore, the solvent of formula (I) may have a vapor pressure equal to or lower than 450 Pa, preferably equal to or lower than 400 Pa, and more preferably equal to or lower 350 Pa at 20° C. For example, the solvent of formula (I) may have a vapor pressure equal to or lower than 450 Pa, or equal to or lower than 400 Pa, or equal to or lower than 350 Pa, or equal to or lower than 300 Pa, or equal to or lower than 250 Pa, or equal to or lower than 200 Pa, or equal to or lower than 250 Pa, or equal to or lower than 200 Pa, or equal to or lower than 150 Pa, or equal to or lower than 100 Pa, at 20° C. Vapor pressure can be determined by ebulliometry according to ASTM-E1719.
Vapor pressure can be determined by ebulliometry according to ASTM-E1719.

Row | Compound | Water solubility [1] [mg/kg] | Flashpoint [2] | 2-EAQ solubility [3] | Specific gravity [4] | Vapor Pressure [5] [Pa]
1 | CCCOc1ccccc1 [Solvent C, phenylpropylether] | 141 | 64-65 °C | 229 g/kg of solvent | 0.946 | 60
2 | Cc1cc(C)cc(C)c1 [Solvent D, 1,3,5-trimethylbenzene, reference compound] |  |  | 210 g/kg of solvent |  | 
3 | CCc1ccc(OC)cc1 [Solvent A, 1-ethyl-4-methoxybenzene] | 90 | 68-72 °C | 229 g/kg of solvent | 0.944 | 67

Further lines, results first:

Row | Water solubility [1] [mg/kg] | Flashpoint [2] | 2-EAQ solubility [3] | Specific gravity [4] | Vapor Pressure [5] [Pa] | Compound
4 | 114 | 61-67 °C | 226 g/kg of solvent | 0.943 | 124 | COc1c(C)cccc1C [Solvent B, 2,6-dimethylanisole]
5 | 1728 | 49-52 °C |  | 0.995 | 490 | COc1ccccc1 [Anisole (*), Anisole, reference compound]

— US20240253988A1, “PROCESS FOR THE PRODUCTION OF HYDROGEN PEROXIDE” (ARKEMA FRANCE, priority 2021, published 2024)
